This note sets out measurements from PubChem BioAssay (NCI).

Some test systems named below: A498 renal; A549 NSCLC; CAKI-1 renal; CCRF-CEM leukemia; COLO 205 colon; HCT-116 colon; NCI-H23 lung; NCI/ADR-RES ovarian; OVCAR-5 ovarian; SK-MEL-5 melanoma.
What all share (assay): DTP human tumour cell line panel, 48 h

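Cultured in 96-well plates, cells were exposed to test compound for 48 hours across five concentrations. GI50 marks 50% less growth. TGI marks complete inhibition of growth.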

For orientation: GI50 means the concentration at which growth is held to half of that of the control. In general, TGI refers to the concentration giving total growth inhibition. Lower therefore signals more potent growth arrest. In the case of `COC(=O)[C@]12CC[C@@H](C)[C@H](C)[C@@H]1C1=CC[C@@H]3[C@@]4(C)C(C=O)=C[C@@](C)(COC(=O)c5ccco5)C4=CC[C@@]3(C)[C@]1(C)CC2`, the GI50 with A498 renal was 2810 nM; in the assay with A549 NSCLC it was 3280 nM; in the assay on CAKI-1 renal, 3320 nM; in the assay on CCRF-CEM leukemia, 2870 nM; with COLO 205 colon, 24.7 nM; with HCT-116 colon, 2200 nM. For the same molecule, the GI50 in the assay on NCI-H23 lung is 3250 nM; in the assay on NCI/ADR-RES ovarian, 4840 nM; in the assay on OVCAR-5 ovarian it was 2320 nM; in the assay with SK-MEL-5 melanoma, 189 nM. The total growth inhibition concentration (TGI) with A498 renal is 16.9 µM; with A549 NSCLC, 14 µM; in the assay on CAKI-1 renal, 25.2 µM; in the assay with CCRF-CEM leukemia, 8.73 µM; in the assay on COLO 205 colon, 0.0614 µM; in the assay with HCT-116 colon it was 6.47 µM. Moreover, the concentration for total growth inhibition (TGI) in the assay on NCI-H23 lung was determined as 25.7 µM; in the assay with NCI/ADR-RES ovarian, 26.1 µM; with OVCAR-5 ovarian, 6.99 µM; with SK-MEL-5 melanoma, 1.17 µM.

For the molecule `NC1=C(/C(N)=N/O)C(c2ccccc2)c2ccc3ccccc3c2O1` (centres undefined), the GI50 was 168 nM in the assay on A498 renal; 617 nM with A549 NSCLC; 192 nM in the assay with CAKI-1 renal; 388 nM in the assay on CCRF-CEM leukemia; 456 nM in the assay on COLO 205 colon; 444 nM in the assay on HCT-116 colon. The GI50 in the assay on NCI-H23 lung is 479 nM; in the assay on NCI/ADR-RES ovarian, 57.8 nM; in the assay on OVCAR-5 ovarian it was 1190 nM; in the assay with SK-MEL-5 melanoma, 369 nM. Moreover, the TGI in the assay with A498 renal was 0.72 µM; in the assay on A549 NSCLC, above 100 µM; in the assay on CAKI-1 renal it was 42.3 µM; with CCRF-CEM leukemia, above 62.8 µM; in the assay with COLO 205 colon, 7.26 µM; with HCT-116 colon, 30.7 µM. Moreover, the TGI in the assay with NCI-H23 lung was above 100 µM; with NCI/ADR-RES ovarian it was 1.65 µM; in the assay with OVCAR-5 ovarian, above 100 µM; with SK-MEL-5 melanoma, 9.79 µM.

Take `COc1ccccc1C(=O)Nc1ccc(Cl)c(C(=O)OC(C)C)c1`: the TGI with A498 renal is above 90.4 µM; in the assay on A549 NSCLC, above 100 µM; in the assay with CAKI-1 renal, above 100 µM; in the assay on CCRF-CEM leukemia, above 92.7 µM; with COLO 205 colon, above 100 µM; in the assay with HCT-116 colon it was above 95 µM. Further, the TGI is 28.1 µM in the assay with NCI-H23 lung, 64.4 µM in the assay with NCI/ADR-RES ovarian, above 83.4 µM in the assay with OVCAR-5 ovarian and above 54.8 µM with SK-MEL-5 melanoma.

For `COc1ccccc1CNC(=O)/C=C/c1ccc(O)c(O)c1`, the GI50 in the assay on A498 renal is above 100000 nM; in the assay with A549 NSCLC it was 64300 nM; with CAKI-1 renal it was 30300 nM; with CCRF-CEM leukemia it was 18200 nM; in the assay on COLO 205 colon, 24400 nM; with HCT-116 colon, 52600 nM. In addition, the GI50 is 77600 nM in the assay on NCI-H23 lung, 66000 nM with NCI/ADR-RES ovarian, above 100000 nM in the assay with OVCAR-5 ovarian and 56800 nM in the assay on SK-MEL-5 melanoma. The TGI in the assay on A498 renal, in the assay on A549 NSCLC, in the assay on CAKI-1 renal, with CCRF-CEM leukemia, in the assay with COLO 205 colon and with HCT-116 colon was above 100 µM throughout. The TGI with NCI-H23 lung, in the assay with NCI/ADR-RES ovarian, in the assay on OVCAR-5 ovarian and in the assay on SK-MEL-5 melanoma was above 100 µM throughout.

On to `CCN1Cc2c(/C=C/c3ccccc3)nc3ccc(OC)cc3c2N(c2cccc(Cl)c2)C1`, for which the GI50 in the assay with A498 renal is 1500 nM; with A549 NSCLC, 1990 nM; with CAKI-1 renal it was 1510 nM; with CCRF-CEM leukemia it was 2170 nM; with COLO 205 colon, 1590 nM; with HCT-116 colon, 1670 nM. For the same molecule, the GI50 in the assay on NCI-H23 lung is 1670 nM; in the assay on NCI/ADR-RES ovarian, 2100 nM; in the assay with OVCAR-5 ovarian it was 1490 nM; with SK-MEL-5 melanoma, 1590 nM. Also, the concentration for total growth inhibition (TGI) with A498 renal worked out at 3.86 µM; in the assay with A549 NSCLC it was 3.96 µM; with CAKI-1 renal it was 3.57 µM; in the assay on CCRF-CEM leukemia, 5.84 µM; in the assay with COLO 205 colon, 3 µM; with HCT-116 colon, 3.8 µM. Further, the TGI was 4.2 µM with NCI-H23 lung, 5.22 µM in the assay on NCI/ADR-RES ovarian, 2.97 µM in the assay on OVCAR-5 ovarian and 3 µM in the assay on SK-MEL-5 melanoma.

For the molecule `COc1cc(-c2cn(-c3ccc(F)cc3)c(=O)[nH]2)cc(OC)c1OC`, the GI50 in the assay on A498 renal, with A549 NSCLC, with CAKI-1 renal, in the assay with CCRF-CEM leukemia, in the assay with COLO 205 colon and in the assay on HCT-116 colon was above 100000 nM in each case. The GI50 in the assay with NCI-H23 lung, in the assay on NCI/ADR-RES ovarian, in the assay on OVCAR-5 ovarian and in the assay with SK-MEL-5 melanoma was above 100000 nM each time. Besides, the TGI in the assay with A498 renal, in the assay with A549 NSCLC, in the assay on CAKI-1 renal, in the assay with CCRF-CEM leukemia, in the assay on COLO 205 colon and in the assay on HCT-116 colon was above 100 µM in each case. In addition, the total growth inhibition concentration (TGI) in the assay with NCI-H23 lung, in the assay on NCI/ADR-RES ovarian, with OVCAR-5 ovarian and in the assay on SK-MEL-5 melanoma was above 100 µM in each case.

As to `COc1ccc(-n2nc(C(=O)NCC(=O)Nc3nc4cc(OC)ccc4s3)c3ccccc3c2=O)cc1`, the GI50 was 1370 nM in the assay with A498 renal; 349 nM with A549 NSCLC; 366 nM in the assay with CAKI-1 renal; above 100000 nM in the assay on CCRF-CEM leukemia; 477 nM with COLO 205 colon; 1640 nM with HCT-116 colon. Also, the GI50 in the assay with NCI-H23 lung was 1320 nM; with NCI/ADR-RES ovarian, 1350 nM; in the assay on OVCAR-5 ovarian, 2320 nM; with SK-MEL-5 melanoma, 1550 nM. In addition, the TGI was 10.3 µM in the assay on A498 renal; 1.51 µM with A549 NSCLC; 2.99 µM in the assay on CAKI-1 renal; above 100 µM in the assay with CCRF-CEM leukemia; 3.89 µM with COLO 205 colon; above 100 µM with HCT-116 colon. The TGI in the assay with NCI-H23 lung is 9 µM; with OVCAR-5 ovarian it was above 20.7 µM; in the assay on SK-MEL-5 melanoma it was above 42.7 µM.

Consider `O=C(O)c1ccccc1C(=O)Nc1cc2c(cc1Br)-c1ccccc1C2=O`, for which the total growth inhibition concentration (TGI) in the assay with A498 renal, in the assay with A549 NSCLC, with CAKI-1 renal, with CCRF-CEM leukemia, in the assay on COLO 205 colon and in the assay on HCT-116 colon was above 100 µM throughout. In addition, the TGI in the assay on NCI-H23 lung, in the assay with NCI/ADR-RES ovarian, in the assay with OVCAR-5 ovarian and in the assay on SK-MEL-5 melanoma was above 100 µM throughout.
